Assays:
wild-type EGFR = conditions: higher potency; cited from earlier work
[1] = cited from earlier work; for Fraction of metabolite conversion from the parent: fixed in the PopPK model
clinical = conditions: human, in vivo
Method: Patients were asked to determine the time of drug intake. The collected serum and whole peripheral blood samples were stored at − 80 °C until analysis.
Several candidate PopPK models with different structures were compared based on the goodness-of-fit (GOF) plots and the objective function value (OFV) expressed as minus twice log likelihood (−2LL), and the difference in OFV between the two nested models was statistically evaluated using the chi-square test (the decrease in −2LL >3.84, p < 0.05, was considered statistically significant).
Stepwise covariate analysis was performed to evaluate the effect of covariates on clearance and volume of distribution. The significance of the effect was assessed by the −2LL value; decrease in −2LL of >3.84 (p < 0.050) for the forward addition was considered significant. The impact of body weight (BW), albumin (ALB), age (AGE), sex, aspartate aminotransferase (AST), and alanine aminotransferase (ALT) levels on CLparent/F, CLm5/F, and CLm7/F was evaluated. In addition, BW, ALB, AGE, and sex were evaluated on Vparent/F, Vm5/F, and Vm7/F. The covariates were modeled as shown in equation (c) in the power form for continuous covariates, equation (d) with log-transformation for continuous covariates with outliers, and equation (e) for categorical covariates: […]
The candidate PopPK models were evaluated by goodness of fit, ∆−2LL values, η-shrinkage, and relative standard error (RSE%). […] The uncertainty of the parameters was estimated by performing a bootstrap. The original dataset was randomly resampled to generate 1000 samples, and the parameters estimated from the successful runs were compared to those estimated from the original dataset.

[2] = in vivo

| Compound | Potency against wild-type EGFR compared with the parent compound (wild-type EGFR) | Half-life [1] | Fraction of metabolite conversion from the parent [1] | Clearance CL/F (θ1, θ4, θ6) (clinical) | Coefficient of variation for clearance (CL/F) (clinical) | Inter-occasion variance of clearance (ω^2 CL,IOV) (clinical) | Association between AUC0–24 and grade ≥ 2 anorexia ([2]; human) | Association between AUC0–24 and grade ≥ 2 increased creatinine ([2]; human) | Association between AUC0–24 and grade ≥ 2 paronychia ([2]; human) | Sensitivity of AUC0–24 cut-off for grade ≥ 2 AEs ([2]; human) | Specificity of AUC0–24 cut-off for grade ≥ 2 AEs ([2]; human) | Area under the ROC curve for predicting grade ≥ 2 AEs using AUC0–24 [2] | Cut-off AUC0–24 to predict grade ≥ 2 AEs [2] | Circulating exposure of active metabolite relative to the parent compound [1] | AUC0–24 at steady state, median (IQR) (clinical) |
| --- | --- | --- | --- | --- | --- | --- | --- | --- | --- | --- | --- | --- | --- | --- | --- |
| C=CC(=O)Nc1cc(Nc2nccc(-c3c[nH]c4ccccc34)n2)c(OC)cc1N(C)CCN(C)C [AZ5104] | 15 fold | 52.6 h | 25% | 44.41 L/h | 35% | 0.034 | – | – | – | – | – | – | – | – | – |
| C=CC(=O)Nc1cc(Nc2nccc(-c3cn(C)c4ccccc34)n2)c(OC)cc1N(C)CCNC [AZ7550] | – | 72.7 h | 25% | 46.2 L/h | 27% | – | significant association | significant association | significant association | 49% | 90% | 0.651 | 462 ng·h/mL | 10% | 367 (275–516) ng/mL*h |
